# From article PMC8864676 (Organic & biomolecular chemistry, 2022)
# Several values for one entry are separate records, joined by “and”; a condition that tells them apart may be missing. Identical values can stand only once.
# Key:
# [1] = target: T1, PutA86–630 (PRODH domain of proline utilization A) (Escherichia coli, UniProt P09546); assay: Initial single-point screening of compounds for inhibition of PRODH activity; type: biochemical; conditions: for inhibition at 5000 µM: read-out: inhibition in the single-point assay; for inhibition in the single-point assay (in words): 13, 15, 16 compared with 1
# T1 sequence (P09546 86-630): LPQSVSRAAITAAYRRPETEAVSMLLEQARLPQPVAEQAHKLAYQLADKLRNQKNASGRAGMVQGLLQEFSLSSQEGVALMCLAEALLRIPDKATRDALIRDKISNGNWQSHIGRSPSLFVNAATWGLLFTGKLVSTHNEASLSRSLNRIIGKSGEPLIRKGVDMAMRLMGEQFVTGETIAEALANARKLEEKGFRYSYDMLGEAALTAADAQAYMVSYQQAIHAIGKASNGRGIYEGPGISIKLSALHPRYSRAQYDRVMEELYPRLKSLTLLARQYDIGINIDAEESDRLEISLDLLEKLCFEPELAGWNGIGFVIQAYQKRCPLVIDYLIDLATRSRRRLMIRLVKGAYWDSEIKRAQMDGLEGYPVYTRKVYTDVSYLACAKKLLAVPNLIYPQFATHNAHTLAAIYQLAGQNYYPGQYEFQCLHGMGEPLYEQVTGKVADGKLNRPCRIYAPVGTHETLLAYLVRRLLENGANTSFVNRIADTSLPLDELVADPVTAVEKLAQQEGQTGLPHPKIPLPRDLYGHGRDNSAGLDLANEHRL
# [2] = target: T1, PutA86–630 (PRODH domain of proline utilization A); type: biochemical; conditions: for kcat: kcat of PutA86–630 from the global fit of the data set with this inhibitor; for ΔΔG, loss of binding energy relative to 1 / fold change in Ki relative to 1: chemical double mutant cycle; for fold change in Ki relative to 1: from Ki values
# PRODH = conditions: cited from earlier work
# [3] = 5 mM inhibitor, 200 mM L-proline
molecule,measurement,setting,value
"O=C(O)C1CCC1 [Compound 3, cyclobutanecarboxylic acid]",reduction of enzyme activity relative to the no-inhibitor control,[1]; [3],over 2 fold
same,inhibition at 5000 µM,[1],> 50%
same,"ΔΔG, improvement of affinity relative to 16","[2]; cyclopentane of 16 decreased to cyclobutane, calculated from Ki values",0.71 kcal/mol and 0.7 kcal/mol
same,kcat,[2],1.47 ± 0.05 s⁻¹
same,"ΔΔG, loss of binding energy relative to 18","[2]; removing the O heteroatom from 18, calculated from Ki values",about 0.2 kcal/mol
"O=C(O)C1CC1 [Compound 4, cyclopropanecarboxylic acid]",kcat,[2],1.20 ± 0.03 s⁻¹
same,"ΔΔG, decrease of affinity relative to 3","[2]; ring size decreased from cyclobutane to cyclopropane, calculated from Ki values",0.3 kcal/mol
"O=C1CC(C(=O)O)C1 [Compound 10, 3-oxocyclobutanecarboxylic acid]",inhibition in the single-point assay (in words),[1]; [3],very little inhibition
"NC(=O)[C@@H]1CCCO1 [Compound 13, (S)-(−)-tetrahydrofuran-2-carboxamide]",inhibition in the single-point assay (in words),[1]; [3],decreases inhibition
"O=C(O)C1CCCCO1 (centres unmarked) [Compound 15, tetrahydropyran-2-carboxylic acid]",inhibition in the single-point assay (in words),[1]; [3],severely decreases inhibition
"O=C(O)C1CCCC1 [Compound 16, cyclopentanecarboxylic acid]",inhibition in the single-point assay (in words),[1]; [3],severely decreases inhibition
same,"ΔΔG, loss of binding energy relative to 1",[2]; calculated from Ki values,~2 kcal/mol
same,fold change in Ki relative to 1,[2],20 fold
same,kcat,[2],1.35 ± 0.04 s⁻¹
"CCC(=O)C(=O)O [Compound 17, 2-oxobutyric acid]",inhibition at 5000 µM,[1],> 50%
same,kcat,[2],1.14 ± 0.02 s⁻¹
"O=C(O)[C@@H]1CCO1 [Compound 18, (2S)-oxetane-2-carboxylic acid]",reduction of enzyme activity relative to the no-inhibitor control,[1]; [3],over 2 fold
same,inhibition at 5000 µM,[1],> 50%
same,"ΔΔG, loss of binding energy relative to 1",[2]; calculated from Ki values,0.95 kcal/mol
same,fold change in Ki relative to 1,[2],5 fold
same,kcat,[2],1.42 ± 0.04 s⁻¹
C[C@H](O)C(=O)O [L-lactic acid],Ki,PRODH,~1000 µM
CC(=O)O [acetic acid],Ki,PRODH,~30000 µM
"(S)-(−)-tetrahydro-2-furoic acid [Compound 1, reference compound]",enzyme activity relative to the no-inhibitor control,[1]; [3],12%
same,kcat,[2],1.16 ± 0.03 s⁻¹
same,Ki,PRODH,200 to 1000 µM
